Activity calls are given as the source filed them. No rule for the calls is given here.
Test system: GENE-TOX genotoxicity assays, various organisms and cells
Assay: GENE-TOX mutagenicity studies
Settings: for call: Assay Type: In vivo carcinogenicity studies
[1] = Species/Cell Type: Mammalian polychromatic erythrocytes, Assay Type: Micronucleus test, chromosome aberrations, Assay Code: MNT+, Evaluation Type: Evaluation B (Post-1980)
[2] = Species/Cell Type: Chinese hamster lung (V79) cells, Assay Type: Forward gene mutation at the HPRT or ouabain locus, Assay Code: V79-, Evaluation Type: Evaluation A (Pre-1980)
[3] = Species/Cell Type: Nonhuman, Assay Code: CCGT, Evaluation Type: Evaluation A (Pre-1980)
[4] = Species/Cell Type: Salmonella typhimurium (one or more of the five standard strains: TA98, TA100, TA1535, TA1537, and TA1538), Assay Type: Histidine reverse gene mutation, Ames assay, Assay Code: SAL+, Evaluation Type: Evaluation A (Pre-1980)
[5] = Species/Cell Type: Salmonella typhimurium (one or more of the five standard strains: TA98, TA100, TA1535, TA1537, and TA1538), Assay Type: Histidine reverse gene mutation, Ames assay, Assay Code: SAL-, Evaluation Type: Evaluation A (Pre-1980)
[6] = Species/Cell Type: Nonhuman, Assay Type: Sister-chromatid exchange (SCE) in vitro, Assay Code: SC2+D, Dose Response: With dose response, Evaluation Type: Evaluation B (Post-1980)
[7] = Species/Cell Type: Nonhuman, Assay Code: CCG+, Evaluation Type: Evaluation A (Pre-1980)
[8] = Species/Cell Type: Salmonella typhimurium (one or more of the five standard strains: TA98, TA100, TA1535, TA1537, and TA1538), Assay Type: Histidine reverse gene mutation, Ames assay, Assay Code: SAL+*, Activation: With metabolic activation, Evaluation Type: Evaluation A (Pre-1980)
[9] = Species/Cell Type: Salmonella typhimurium (one or more of the five standard strains: TA98, TA100, TA1535, TA1537, and TA1538), Assay Type: Histidine reverse gene mutation, Ames assay, Assay Code: SALT, Evaluation Type: Evaluation A (Pre-1980)
[10] = Species/Cell Type: Nonhuman, Assay Type: Sister-chromatid exchange (SCE) in vitro, Assay Code: SC2T, Evaluation Type: Evaluation B (Post-1980)
[11] = Species/Cell Type: Chinese hamster lung (V79) cells, Assay Type: Forward gene mutation at the HPRT or ouabain locus, Assay Code: V79+, Evaluation Type: Evaluation A (Pre-1980)
[12] = Species/Cell Type: Nonhuman, Assay Type: Sister-chromatid exchange (SCE) in vivo, Assay Code: SC3T, Evaluation Type: Evaluation B (Post-1980)
[13] = Species/Cell Type: Human lymphocytes, Assay Type: Sister-chromatid exchange (SCE) in vitro, Assay Code: SCL+D, Dose Response: With dose response, Evaluation Type: Evaluation B (Post-1980)
[14] = Species/Cell Type: Human, Assay Type: Sister-chromatid exchange (SCE) in vitro, Assay Code: SC1+D, Dose Response: With dose response, Evaluation Type: Evaluation B (Post-1980)
[15] = Species/Cell Type: Bacillus subtilis (H17 vs M45), Assay Type: Rec-assay, spot test, DNA effects (bacterial DNA repair), Assay Code: REW+, Evaluation Type: Evaluation A (Pre-1980)

CCCCCCCCCCCCCCCCCC(=O)O
mutagenic call (Species/Cell Type: Escherichia coli polA (W3119 vs P3478), Assay Type: Rec-assay, DNA effects (bacterial DNA repair), Assay Code: RE1-, Evaluation Type: Evaluation A (Pre-1980)): inactive; negative

COc1ccc(/C=N\NC(=O)COc2ccc(Br)cc2CN2CCCCC2)cc1
mutagenic call (Species/Cell Type: Saccharomyces cerevisiae, Assay Type: Reverse gene mutation, Assay Code: YERT, Evaluation Type: Evaluation A (Pre-1980)): no conclusion

CC1CS(=O)(=O)CCN1/N=C/c1ccc([N+](=O)[O-])o1 (centres undefined)
mutagenic call [1]: active; positive

Oc1cc2c3ccccc3cc3ccc4cccc1c4c32
mutagenic call [2]: inactive; negative | call [3]: no conclusion | mutagenic call [4]: active; positive

Cc1cc(O)ccc1[N+](=O)[O-]
mutagenic call (Species/Cell Type: Allium cepa, Assay Type: Chromosome aberrations, Assay Code: ALC+, Evaluation Type: Evaluation A (Pre-1980)): active; positive

C=CCNC(=O)OC1(SC)C(=O)c2ccccc2C1=O
mutagenic call (Species/Cell Type: Salmonella typhimurium, Assay Type: Forward and reverse gene mutation, host-mediated assay, Assay Code: HMAT, Evaluation Type: Evaluation A (Pre-1980)): no conclusion

CCOc1ccc2c(c1)C(C)=CC(C)(C)N2
mutagenic call (Species/Cell Type: Drosophila melanogaster, Assay Type: Sex-linked recessive lethal gene mutation, Assay Code: SRL-, Evaluation Type: Evaluation A (Pre-1980)): inactive; negative | mutagenic call [5]: inactive; negative

[N-]=[N+]=CC(=O)NCC(N)=O
mutagenic call [6]: active; positive | mutagenic call [4]: active; positive

Cc1cc(N=Nc2ccccc2C)ccc1N
mutagenic call (Species/Cell Type: Escherichia coli polA (W3110 vs P3478), Assay Type: Rec-assay, DNA effects (bacterial DNA repair), Assay Code: RE2+, Evaluation Type: Evaluation A (Pre-1980)): active; positive | mutagenic call (Species/Cell Type: Escherichia coli polA (W3119 vs P3478), Assay Type: Rec-assay, DNA effects (bacterial DNA repair), Assay Code: RE1T, Evaluation Type: Evaluation A (Pre-1980)): no conclusion | mutagenic call (Species/Cell Type: Neurospora crassa, Assay Type: Forward gene mutation, Assay Code: NEF+, Evaluation Type: Evaluation A (Pre-1980)): active; positive | call [7]: active; positive | mutagenic call [6]: active; positive | mutagenic call (Species/Cell Type: Nonhuman, Assay Type: Sister-chromatid exchange (SCE) in vitro, Assay Code: SC2T, Evaluation Type: Evaluation A (Pre-1980)): no conclusion | mutagenic call (Species/Cell Type: Nonhuman, Assay Type: Sister-chromatid exchange (SCE) in vivo, Assay Code: SC3+, Evaluation Type: Evaluation B (Post-1980)): active; positive | mutagenic call (Species/Cell Type: Saccharomyces cerevisiae, Assay Type: Mitotic recombination or gene conversion, Assay Code: YEH-, Evaluation Type: Evaluation A (Pre-1980)): inactive; negative | mutagenic call [8]: active; positive | mutagenic call [9]: no conclusion | mutagenic call (Species/Cell Type: Salmonella typhimurium, Assay Type: Forward and reverse gene mutation, host-mediated assay, Assay Code: HMA-, Evaluation Type: Evaluation A (Pre-1980)): inactive; negative | mutagenic call (Species/Cell Type: Syrian hamster embryo (SHE) cells, Assay Type: Cell transformation, clonal assay, Assay Code: CTC+, Evaluation Type: Evaluation A (Pre-1980)): active; positive

CC(CN(C)C)CN1c2ccccc2CCc2ccccc21 (centres undefined)
mutagenic call (Species/Cell Type: Human, Sex: Male, Assay Type: Sperm morphology, Assay Code: SPHT, Evaluation Type: Evaluation A (Pre-1980)): no conclusion

Nc1nc(N)nc(-c2ccc([N+](=O)[O-])o2)n1
mutagenic call [4]: active; positive

O=S1(=O)OC2(c3ccc(O)cc3Oc3cc(O)ccc32)c2ccccc21
mutagenic call [9]: no conclusion

O=[Si]=O
mutagenic call [10]: no conclusion

CCC1(c2ccccc2)CCC(=O)NC1=O (centres undefined)
mutagenic call (Species/Cell Type: Drosophila melanogaster, Assay Type: Aneuploidy, sex chromosome gain, chromosome aberrations, Assay Code: DAG-M, Evaluation Type: Evaluation A (Pre-1980)): inactive; negative | mutagenic call (Species/Cell Type: Drosophila melanogaster, Assay Type: Aneuploidy, whole sex chromosome loss, chromosome aberrations, Assay Code: DAC-M, Evaluation Type: Evaluation A (Pre-1980)): inactive; negative

Cc1c2cccc(F)c2c(C)c2c1ccc1ccccc12
mutagenic call [11]: active; positive

O=C1CN=C(c2ccccc2)c2cc([N+](=O)[O-])ccc2N1
mutagenic call (Species/Cell Type: Aspergillus nidulans, Assay Type: Forward gene mutation, Assay Code: ASF+, Evaluation Type: Evaluation A (Pre-1980)): active; positive

O=C(O)c1cc(I)cc(I)c1I
mutagenic call (Species/Cell Type: Hordeum vulgare (barley), Assay Type: Chromosome aberrations, Assay Code: HOC+, Evaluation Type: Evaluation A (Pre-1980)): active; positive

Clc1cc2c(cc1Cl)Oc1cc(Cl)c(Cl)cc1O2
mutagenic call (Species/Cell Type: Mammalian polychromatic erythrocytes, Assay Type: Micronucleus test, chromosome aberrations, Assay Code: MNTT, Evaluation Type: Evaluation B (Post-1980)): no conclusion | call [7]: active; positive | mutagenic call [12]: no conclusion | mutagenic call (Species/Cell Type: Rodents, Sex: Male, Assay Type: Dominant lethal test, Assay Code: DLT-, Evaluation Type: Evaluation A (Pre-1980)): inactive; negative

CN(C)CCCN1c2ccccc2Sc2ccc(Cl)cc21
mutagenic call [2]: inactive; negative | mutagenic call [13]: active; positive | mutagenic call [14]: active; positive | call [3]: no conclusion | mutagenic call (Species/Cell Type: Nonhuman, Assay Type: Sister-chromatid exchange (SCE) in vitro, Assay Code: SC2+D, Dose Response: With dose response, Evaluation Type: Evaluation A (Pre-1980)): active; positive | mutagenic call [12]: no conclusion

[Cl][Ce]([Cl])[Cl]
mutagenic call (Species/Cell Type: Bacillus subtilis (H17 vs M45), Assay Type: Rec-assay, spot test, DNA effects (bacterial DNA repair), Assay Code: REW-, Evaluation Type: Evaluation A (Pre-1980)): inactive; negative

O=S(=O)(O)c1c(N=Nc2c(O)ccc3ccccc23)ccc2ccccc12
mutagenic call [5]: inactive; negative

CN=C1C=CC(=C(c2ccc(N(C)C)cc2)c2ccc(N(C)C)cc2)C=C1
mutagenic call [15]: active; positive | mutagenic call (Species/Cell Type: Bacillus subtilis (H17 vs M45T), Assay Type: Rec-assay, spot test, DNA effects (bacterial DNA repair), Assay Code: REXT, Evaluation Type: Evaluation A (Pre-1980)): no conclusion

CCS(=O)CCSP(=S)(OC)OC (centres undefined)
mutagenic call (Species/Cell Type: Drosophila melanogaster, Assay Type: Sex-linked recessive lethal gene mutation, Assay Code: SRLT, Evaluation Type: Evaluation A (Pre-1980)): no conclusion

Cc1ccc2cc3c(ccc4ccccc43)c3c2c1CC3O (centres undefined)
mutagenic call [11]: active; positive | call (Species/Cell Type: Nonhuman, Assay Code: CCG+L, Evaluation Type: Evaluation A (Pre-1980)): active; positive | mutagenic call [8]: active; positive

Nc1ccc(Sc2ccc(N)cc2)cc1
call [7]: active; positive

NC(=O)N1C2=CC=CCC2=C(CO)c2ccccc21
mutagenic call (Species/Cell Type: Human lymphocytes, Assay Type: Sister-chromatid exchange (SCE) in vitro, Assay Code: SCLT, Evaluation Type: Evaluation B (Post-1980)): no conclusion | mutagenic call (Species/Cell Type: Human, Assay Type: Sister-chromatid exchange (SCE) in vitro, Assay Code: SC1T, Evaluation Type: Evaluation B (Post-1980)): no conclusion

C=C1C(=O)OC2CC(C)C3CC(OCC)OC(OCC)C3(C)CC12 (centres undefined)
mutagenic call [4]: active; positive

[Cl][Mn][Cl]
mutagenic call [15]: active; positive | mutagenic call (Species/Cell Type: Fischer rat embryo (RLV/1706) cells, Assay Type: Cell transformation, viral enhanced, Assay Code: CTR+, Evaluation Type: Evaluation A (Pre-1980)): active; positive | mutagenic call [10]: no conclusion | mutagenic call (Species/Cell Type: Syrian hamster embryo (SA7/SHE) cells, Assay Type: Cell transformation, viral enhanced, Assay Code: CT7+, Evaluation Type: Evaluation A (Pre-1980)): active; positive

CC(C)NCC(Cl)c1ccc2ccccc2c1 (centres undefined)
mutagenic call (Species/Cell Type: Mouse, Sex: Male, Assay Type: Sperm morphology, Assay Code: SPI+, Evaluation Type: Evaluation A (Pre-1980)): active; positive

O=[N+]([O-])c1ccc(Oc2ccc(C(F)(F)F)cc2[N+](=O)[O-])cc1
mutagenic call (Species/Cell Type: Saccharomyces cerevisiae, Assay Type: Mitotic recombination or gene conversion, Assay Code: YEC-, Evaluation Type: Evaluation A (Pre-1980)): inactive; negative

CNC(=O)c1c(I)c(NC(C)=O)c(I)c(C(=O)O)c1I
mutagenic call [13]: active; positive | mutagenic call [14]: active; positive

Clc1ccccc1
mutagenic call [1]: active; positive
